Legend:
[1] = test system: corn; assay: Test A postemergence; assay type: in vivo, Zea mays
Procedure, shortened: (§1)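 Scoring: eye-based comparison with untreated controls, 0 for no effect through 100 for complete control, at about day 10. Treatments: directed soil spray preemergence; foliar spray postemergence on 2–10 cm plants at the one- to two-leaf stage. Medium: loam soil with sand.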

[2] = test system: Heteranthera limosa; assay: Test B flooded paddy test; assay type: in vivo; conditions: Flood, 250 g ai/ha; 0 to 100 scale where 0 is no effect and 100 is complete control
Procedure, shortened: (§2)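 Scores from 0 (no effect) to 100 (complete control) are visual comparisons with controls, taken 13 to 15 days after compound was applied into floodwater 3 cm deep around 2-leaf plants.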

[3] = test system: wheat; assay: Test A postemergence; assay type: in vivo, Triticum aestivum
Procedure, shortened: as §1

[4] = test system: morningglory; assay: Test A postemergence; assay type: in vivo, Ipomoea spp.
Procedure, shortened: as §1

[5] = test system: morningglory; assay: Test A preemergence; assay type: in vivo, Ipomoea spp.; conditions: for Morningglory plant response rating (0 to 100 scale) / Plant response rating, Morningglory: 125 g ai/ha
Procedure, shortened: as §1

[6] = test system: barnyardgrass; assay: Test B flooded paddy test; assay type: in vivo, Echinochloa crus-galli; conditions: Flood, 250 g ai/ha; 0 to 100 scale where 0 is no effect and 100 is complete control
Procedure, shortened: as §2

[7] = test system: giant foxtail; assay: Test A postemergence; assay type: in vivo, Setaria faberii
Procedure, shortened: as §1

[8] = test system: barnyardgrass; assay: Test A postemergence; assay type: in vivo, Echinochloa crus-galli
Procedure, shortened: as §1

[9] = test system: barnyardgrass; assay: Test A preemergence; assay type: in vivo, Echinochloa crus-galli
Procedure, shortened: as §1

[10] = test system: wheat; assay: Test A preemergence; assay type: in vivo, Triticum aestivum; conditions: for Wheat plant response rating (0 to 100 scale) / Plant response rating, Wheat: 125 g ai/ha
Procedure, shortened: as §1

[11] = test system: velvetleaf; assay: Test A preemergence; assay type: in vivo, Abutilon theophrasti; conditions: for Velvetleaf plant response rating (0 to 100 scale) / Plant response rating, Velvetleaf: 125 g ai/ha
Procedure, shortened: as §1

[12] = test system: corn; assay: Test A preemergence; assay type: in vivo, Zea mays
Procedure, shortened: as §1

[13] = test system: velvetleaf; assay: Test A postemergence; assay type: in vivo, Abutilon theophrasti
Procedure, shortened: as §1

[14] = test system: large (Lg) crabgrass; assay: Test A postemergence; assay type: in vivo, Digitaria sanguinalis
Procedure, shortened: as §1

[15] = test system: pigweed; assay: Test A preemergence; assay type: in vivo, Amaranthus retroflexus; conditions: for Pigweed plant response rating (0 to 100 scale) / Plant response rating, Pigweed: 125 g ai/ha
Procedure, shortened: as §1

[16] = test system: large (Lg) crabgrass; assay: Test A preemergence; assay type: in vivo, Digitaria sanguinalis
Procedure, shortened: as §1

[17] = test system: rice; assay: Test B flooded paddy test; assay type: in vivo, Oryza sativa; conditions: Flood, 250 g ai/ha; 0 to 100 scale where 0 is no effect and 100 is complete control
Procedure, shortened: as §2

[18] = test system: sedge, umbrella; assay: Test B flooded paddy test; assay type: in vivo, Cyperus difformis; conditions: Flood, 250 g ai/ha; 0 to 100 scale where 0 is no effect and 100 is complete control
Procedure, shortened: as §2

[19] = test system: giant foxtail; assay: Test A preemergence; assay type: in vivo, Setaria faberii
Procedure, shortened: as §1

[20] = test system: pigweed; assay: Test A postemergence; assay type: in vivo, Amaranthus retroflexus
Procedure, shortened: as §1

[21] = 125 g ai/ha, 0 to 100 scale where 0 is no effect and 100 is complete control
[22] = 500 g ai/ha, 0 to 100 scale where 0 is no effect and 100 is complete control
[23] = 500 g ai/ha, 0 to 100 scale, 0 no effect, 100 complete control
[24] = 0 to 100 scale where 0 is no effect and 100 is complete control
[25] = 500 g ai/ha, 0 to 100 scale, 0 no effect, 100 complete control, approx. 10 days
[26] = 1000 g ai/ha, 0 to 100 scale, 0 no effect, 100 complete control
[27] = 1000 g ai/ha, 0 to 100 scale, 0 no effect, 100 complete control, approx. 10 days

C=C(C)c1cccc(Oc2ncc(Cl)cn2)c1-n1cc(Br)cn1 [Compound 198]
25: Plant response rating, Ducksalad [2]
70: Plant response rating, Morningglory [4, 22] | Foxtail, Giant plant response rating (0 to 100 scale) ([19]; 125 g ai/ha)
90: Velvetleaf plant response rating [13, 21] | Plant response rating, Crabgrass, Large [14, 22] | Pigweed plant response rating [20, 21]
30: Foxtail, Giant plant response rating [7, 21] | Barnyardgrass plant response rating [8, 21]
80: Plant response rating, Foxtail, Giant [7, 22] | Barnyardgrass plant response rating [9, 22] | Velvetleaf plant response rating [11, 22] | Crabgrass, Large plant response rating (0 to 100 scale) ([16]; 125 g ai/ha)
0: Wheat plant response rating [3, 21] | Morningglory plant response rating (0 to 100 scale) [5] | Plant response rating, Barnyardgrass [6] | Wheat plant response rating (0 to 100 scale) [10] | Wheat plant response rating [10, 22] | Corn plant response rating (0 to 100 scale) ([12]; 125 g ai/ha) | Corn plant response rating [12, 22] | Plant response rating, Rice [17]
50: Plant response rating, Barnyardgrass [8, 22] | Barnyardgrass plant response rating (0 to 100 scale, 0 is no effect, 100 is complete control) ([9]; 125 g ai/ha)
20: Corn plant response rating [1, 21] | Plant response rating, Corn [1, 22] | Plant response rating, Sedge, Umbrella [18]
10: Plant response rating, Wheat [3, 22] | Morningglory plant response rating [5, 22]
60: Morningglory plant response rating [4, 21] | Crabgrass, Large plant response rating [14, 21]
100: Plant response rating, Velvetleaf [13, 22] | Pigweed plant response rating (0 to 100 scale) [15] | Pigweed plant response rating [15, 22] | Crabgrass, Large plant response rating [16, 22] | Foxtail, Giant plant response rating [19, 22] | Plant response rating, Pigweed [20, 22]
40: Velvetleaf plant response rating (0 to 100 scale) [11]

O=Cc1cccc(Oc2ncc(Cl)cn2)c1-n1cc(C(F)(F)F)cn1 [Compound 171]
60: Barnyardgrass plant response rating [9, 22]
70: Velvetleaf plant response rating [11, 22] | Plant response rating, Velvetleaf [13, 22]
0: Corn plant response rating [1, 21] | Plant response rating, Corn [1, 22] | Plant response rating, Ducksalad [2] | Wheat plant response rating [3, 21] | Plant response rating, Wheat [3, 22] | Morningglory plant response rating [4, 21] | Plant response rating, Morningglory [4, 22] | Morningglory plant response rating (0 to 100 scale) [5] | Morningglory plant response rating [5, 22] | Plant response rating, Barnyardgrass [6] | Foxtail, Giant plant response rating [7, 21] | Plant response rating, Foxtail, Giant [7, 22] | Barnyardgrass plant response rating [8, 21] | Plant response rating, Barnyardgrass [8, 22] | Wheat plant response rating (0 to 100 scale) [10] | Wheat plant response rating [10, 22] | Plant response rating, Corn [12, 21] | Corn plant response rating [12, 22] | Crabgrass, Large plant response rating [14, 21] | Plant response rating, Crabgrass, Large [14, 22] | Plant response rating, Crabgrass, Large [16, 21] | Crabgrass, Large plant response rating [16, 22] | Plant response rating, Rice [17] | Plant response rating, Sedge, Umbrella [18] | Plant response rating, Foxtail, Giant [19, 21] | Foxtail, Giant plant response rating [19, 22]
30: Velvetleaf plant response rating (0 to 100 scale) [11]
100: Pigweed plant response rating [15, 22] | Pigweed plant response rating [20, 21] | Plant response rating, Pigweed [20, 22]
40: Velvetleaf plant response rating [13, 21]
20: Plant response rating, Barnyardgrass [9, 21]
90: Pigweed plant response rating (0 to 100 scale) [15]

COc1ccc(Oc2ncc(Cl)cn2)c(-n2cc(Br)cn2)c1 [Compound 42]
50: Plant response rating, Crabgrass, Large [14, 23]
30: Plant response rating, Foxtail, Giant [7, 23] | Crabgrass, Large plant response rating [16, 25] | Plant response rating, Pigweed [20, 23]
15: Plant response rating, Rice [17]
70: Plant response rating, Velvetleaf [13, 23]
10: Barnyardgrass plant response rating [9, 25] | Plant response rating, Crabgrass, Large [14, 21] | Plant response rating, Crabgrass, Large [16, 21] | Plant response rating, Foxtail, Giant [19, 21]
45: Plant response rating, Ducksalad [2]
60: Plant response rating, Velvetleaf [11, 24] | Velvetleaf plant response rating [11, 25] | Plant response rating, Velvetleaf [13, 21]
40: Plant response rating, Morningglory [4, 23]
20: Plant response rating, Morningglory [4, 21] | Pigweed plant response rating [15, 25] | Foxtail, Giant plant response rating [19, 25]
0: Plant response rating, Corn [1, 21] | Plant response rating, Corn [1, 23] | Plant response rating, Wheat [3, 21] | Plant response rating, Wheat [3, 23] | Plant response rating, Morningglory [5, 24] | Morningglory plant response rating [5, 25] | Plant response rating, Barnyardgrass [6] | Plant response rating, Foxtail, Giant [7, 21] | Plant response rating, Barnyardgrass [8, 21] | Plant response rating, Barnyardgrass [8, 23] | Plant response rating, Barnyardgrass [9, 21] | Plant response rating, Wheat [10, 24] | Wheat plant response rating [10, 25] | Plant response rating, Corn [12, 21] | Corn plant response rating [12, 25] | Plant response rating, Pigweed [15, 24] | Plant response rating, Sedge, Umbrella [18] | Plant response rating, Pigweed [20, 21]

Brc1cnc(Oc2ccccc2-n2cccn2)nc1 [Compound 13]
80: Plant response rating, Barnyardgrass [9, 26]
100: Plant response rating, Foxtail, Giant [7, 26] | Velvetleaf plant response rating [11, 27] | Plant response rating, Velvetleaf [13, 26] | Pigweed plant response rating [15, 27] | Plant response rating, Crabgrass, Large [16, 26] | Foxtail, Giant plant response rating [19, 27] | Plant response rating, Pigweed [20, 26]
90: Plant response rating, Morningglory [4, 26] | Plant response rating, Barnyardgrass [8, 26] | Plant response rating, Crabgrass, Large [14, 26]
60: Plant response rating, Wheat [3, 26]
40: Plant response rating, Corn [1, 26]
30: Plant response rating, Ducksalad [2]
20: Wheat plant response rating [10, 27]
0: Morningglory plant response rating [5, 27] | Plant response rating, Barnyardgrass [6] | Plant response rating, Corn [12, 26] | Plant response rating, Rice [17] | Plant response rating, Sedge, Umbrella [18]

Clc1cnc(Oc2ccccc2-n2ccnn2)nc1 [Compound 217]
0: Plant response rating, Corn [1, 26] | Plant response rating, Ducksalad [2] | Plant response rating, Barnyardgrass [6] | Wheat plant response rating [10, 27] | Corn plant response rating [12, 27] | Plant response rating, Rice [17] | Plant response rating, Sedge, Umbrella [18]
20: Plant response rating, Wheat [3, 26]
40: Morningglory plant response rating [5, 27]
70: Barnyardgrass plant response rating [9, 27]
60: Plant response rating, Crabgrass, Large [14, 26]
100: Velvetleaf plant response rating [11, 27] | Plant response rating, Velvetleaf [13, 26] | Pigweed plant response rating [15, 27] | Crabgrass, Large plant response rating [16, 27] | Plant response rating, Pigweed [20, 26]
50: Plant response rating, Foxtail, Giant [7, 26]
30: Plant response rating, Barnyardgrass [8, 26]
90: Plant response rating, Morningglory [4, 26] | Foxtail, Giant plant response rating [19, 27]

CC(C)(C)c1ccn(-c2ccccc2Oc2ncc(Cl)cn2)n1 [Compound 29]
30: Plant response rating, Foxtail, Giant [7, 23]
0: Plant response rating, Corn [1, 21] | Plant response rating, Corn [1, 23] | Plant response rating, Ducksalad [2] | Plant response rating, Wheat [3, 21] | Plant response rating, Wheat [3, 23] | Plant response rating, Morningglory [4, 21] | Plant response rating, Morningglory [4, 23] | Plant response rating, Morningglory [5, 24] | Morningglory plant response rating [5, 25] | Plant response rating, Barnyardgrass [6] | Plant response rating, Barnyardgrass [8, 21] | Plant response rating, Barnyardgrass [8, 23] | Plant response rating, Barnyardgrass [9, 21] | Plant response rating, Wheat [10, 24] | Wheat plant response rating [10, 25] | Plant response rating, Velvetleaf [11, 24] | Plant response rating, Corn [12, 21] | Corn plant response rating [12, 25] | Plant response rating, Pigweed [15, 24] | Pigweed plant response rating [15, 25] | Plant response rating, Rice [17] | Plant response rating, Sedge, Umbrella [18]
40: Velvetleaf plant response rating [11, 25] | Plant response rating, Velvetleaf [13, 23] | Plant response rating, Crabgrass, Large [14, 23] | Crabgrass, Large plant response rating [16, 25]
50: Plant response rating, Pigweed [20, 23]
20: Plant response rating, Foxtail, Giant [7, 21] | Barnyardgrass plant response rating [9, 25] | Plant response rating, Velvetleaf [13, 21] | Foxtail, Giant plant response rating [19, 25] | Plant response rating, Pigweed [20, 21]
10: Plant response rating, Crabgrass, Large [14, 21] | Plant response rating, Crabgrass, Large [16, 21] | Plant response rating, Foxtail, Giant [19, 21]

Source: patent publication US9695155B2, “Herbicidal substituted pyrimidinyloxy benzene compounds” (E. I. DU PONT DE NEMOURS AND COMPANY, priority 2013, dated 2017)
